Patent publication US7476666B2, “HIV integrase inhibitors” (Merck & Co., Inc., priority 2004, dated 2009)

Experiments:
[1] = molecular target: T1, recombinant integrase (HIV integrase) (Human immunodeficiency virus type 1 group M subtype B, UniProt P04585); assay: HIV integrase assay: strand transfer catalyzed by recombinant integrase; type: biochemical; details: assay per WO 02/30930, read-out: IC50, inhibition of strand transfer activity of integrase
T1 construct: Strand Transfer Catalyzed by Recombinant Integrase
Experimental: Assays for the strand transfer activity of integrase were conducted in accordance with WO 02/30930 for recombinant integrase.
Further description on conducting the assay using preassembled complexes is found in Wolfe, A. L. et al., J. Virol. 1996, 70: 1424-1432, Hazuda et al., J. Virol. 1997, 71: 7005-7011; Hazuda et al., Drug Design and Discovery 1997, 15: 17-24; and Hazuda et al., Science 2000, 287: 646-650.

[2] = system: acute HIV infection with HeLa P4-2 cells; assay: Single cycle infectivity assay with HeLa P4-2 cells (vertical assay); type: cell-based; details: Human immunodeficiency virus 1, HeLaP4-2
Experimental: An assay for measuring the inhibition of acute HIV infection with HeLa P4-2 cells in a single cycle infectivity assay (alternatively referred to herein as the “vertical assay”) was conducted in accordance with Joyce, J. G. et al., J. Biol. Chem. 2002, 277: 45811, Hazuda, D. J. et al., Science, 2000, 287, 646, and Kimpton, J. et al, J. Virol. 1992, 66: 2232.

[3] = system: acute HIV infection of T-lymphoid cells; assay: Inhibition of acute HIV infection of T-lymphoid cells (spread assay); type: cell-based; details: Human immunodeficiency virus 1
Experimental: An assay for the inhibition of acute HIV infection of T-lymphoid cells (alternatively referred to herein as the “spread assay”) was conducted in accordance with Vacca, J. P. et al., Proc. Natl. Acad. Sci. USA 1994, 91: 4096.

Structure (SMILES) | IC50 [1] [µM] | IC50 [2] [µM] | IC95 [3] [µM]
CN(C)CCN(Cc1ccccc1)C(=O)c1nn2c(c1O)C(=O)N(C)CC2 [Example 19, 2-{Benzyl[2-(dimethylamino)ethyl]aminocarbonyl}-3-hydroxy-5-methyl-4-oxo-4,5,6,7-tetrahydropyrazolo[1,5-a]pyrazine] | > 10 | > 100 | > 10
CNC(=O)c1nn2c(c1O)C(=O)N(Cc1ccc(F)cc1)C(C)C2 (stereo not shown) [Example 6, 5-(4-Fluorobenzyl)-3-hydroxy-N-methyl-6-methyl-4-oxo-4,5,6,7-tetrahydropyrazolo[1,5-a]pyrazine-2-carboxamide] | – | < 40 | > 10
COC(=O)c1nn2c(c1O)C(=O)N(Cc1ccc(F)cc1)CC2 [Example 1, Methyl 5-(4-fluorobenzyl)-3-hydroxy-4-oxo-4,5,6,7-tetrahydropyrazolo[1,5-a]pyrazine-2-carboxylate] | – | > 100 | > 10
CN1CCn2nc(C(=O)N3CCCC3c3ccccc3)c(O)c2C1=O (stereo not shown) [Example 16, 3-Hydroxy-5-methyl-4-oxo-2-[(2-phenylpyrrolidin-1-yl)carbonyl]-4,5,6,7-tetrahydropyrazolo[1,5-a]pyrazine] | > 10 | – | > 10
O=C(NC1CCNCC1)c1nn2c(c1O)C(=O)N(Cc1ccc(F)cc1)CC2 [Example 25, 5-(4-Fluorobenzyl)-3-hydroxy-4-oxo-N-(4-piperidinyl)-4,5,6,7-tetrahydropyrazolo[1,5-a]pyrazine-2-carboxamide] | – | < 40 | > 10
CCNC(=O)c1cc(F)ccc1CNC(=O)c1nn2c(c1O)C(=O)N(C)C[C@H]2c1ccccc1 [Example 39, (7R)-N-{2-[(Ethylamino)carbonyl]-4-fluorobenzyl}-3-hydroxy-5-methyl-4-oxo-7-phenyl-4,5,6,7-tetrahydropyrazolo[1,5-a]pyrazine-2-carboxamide] | – | – | ≤ 10
Cc1nc(C2CN(C)C(=O)c3c(O)c(C(=O)NCc4ccc(F)cc4)nn32)cs1 (stereo not shown) [Example 12, N-(4-Fluorobenzyl)-3-hydroxy-5-methyl-(2-methyl-1,3-thiazol-4-yl)-4-oxo-4,5,6,7-tetrahydropyrazolo[1,5-a]pyrazine-2-carboxamide] | – | – | ≤ 10
CN(Cc1ccc2nccnc2c1)C(=O)c1nn2c(c1O)C(=O)N(C)CC2 [Example 17, 3-Hydroxy-5-methyl-4-oxo-2-{[quinoxalin-6-ylmethyl(methyl)amino]carbonyl}-4,5,6,7-tetrahydropyrazolo[1,5-a]pyrazine] | – | < 40 | > 10
CNC(=O)c1cc(F)ccc1CNC(=O)c1nn2c(c1O)C(=O)N(C)C[C@H]2c1ccccc1 [Example 34, (7R)-N-{4-Fluoro-2-[(methylamino)carbonyl]benzyl}-3-hydroxy-5-methyl-4-oxo-7-phenyl-4,5,6,7-tetrahydropyrazolo[1,5-a]pyrazine-2-carboxamide] | – | – | ≤ 10
CN1CCn2nc(C(=O)N(CCO)Cc3ccccc3)c(O)c2C1=O [Example 18, 2-[Benzyl(2-hydroxyethyl)aminocarbonyl]-3-hydroxy-5-methyl-4-oxo-4,5,6,7-tetrahydropyrazolo[1,5-a]pyrazine] | – | > 100 | > 10
O=C(c1nn2c(c1O)C(=O)N(Cc1ccc(F)cc1)CC2)N1CCOCC1 [Example 28, 5-(4-Fluorobenzyl)-3-hydroxy-2-(morpholin-4-ylcarbonyl)-4-oxo-4,5,6,7-tetrahydropyrazolo[1,5-a]pyrazine] | – | < 40 | > 10
CN1CCn2nc(C(=O)N3CCc4ccccc4C3)c(O)c2C1=O [Example 14, 3-Hydroxy-5-methyl-4-oxo-2-[(1,2,3,4-tetrahydro-isoquinolin-2-yl)carbonyl]-4,5,6,7-tetrahydropyrazolo[1,5-a]pyrazine] | > 10 | – | > 10
CNC(=O)c1cc(F)ccc1CNC(=O)c1nn2c(c1O)C(=O)N(C)C[C@@H]2c1ccccc1 [Example 33, (7S)—N-{4-Fluoro-2-[(methylamino)carbonyl]benzyl}-3-hydroxy-5-methyl-4-oxo-7-phenyl-4,5,6,7-tetrahydropyrazolo[1,5-a]pyrazine-2-carboxamide] | – | – | ≤ 10
CN1CC(c2cccc(C#N)c2)n2nc(C(=O)NCc3ccc(F)cc3)c(O)c2C1=O (stereo not shown) [Example 44, 7-(3-Cyanophenyl)-N-(4-fluorobenzyl)-3-hydroxy-5-methyl-4-oxo-4,5,6,7-tetrahydropyrazolo[5,5-a]pyrazine-2-carboxamide] | – | – | ≤ 10
CN1C[C@H](c2ccccc2)n2nc(C(=O)NCc3ccc(F)cc3C(=O)NC3CC3)c(O)c2C1=O [Example 36, (7S)-N-{2-[(Cyclopropylamino)carbonyl]-4-fluorobenzyl}-3-hydroxy-5-methyl-4-oxo-7-phenyl-4,5,6,7-tetrahydropyrazolo[1,5-a]pyrazine-2-carboxamide] | – | – | ≤ 10
